The values below come from US9102674B2, “Substituted naphthyridine and quinoline compounds as MAO inhibitors” (DART NEUROSCIENCE (CAYMAN) LTD., priority 2013, dated 2015).

Each structure is given as a SMILES string. Some results are limits rather than exact numbers.

This experiment addresses T1, Human recombinant MAO-B (Homo sapiens, UniProt P27338).
T1 construct: host or cells: insect cells
T1 sequence (P27338 1-520): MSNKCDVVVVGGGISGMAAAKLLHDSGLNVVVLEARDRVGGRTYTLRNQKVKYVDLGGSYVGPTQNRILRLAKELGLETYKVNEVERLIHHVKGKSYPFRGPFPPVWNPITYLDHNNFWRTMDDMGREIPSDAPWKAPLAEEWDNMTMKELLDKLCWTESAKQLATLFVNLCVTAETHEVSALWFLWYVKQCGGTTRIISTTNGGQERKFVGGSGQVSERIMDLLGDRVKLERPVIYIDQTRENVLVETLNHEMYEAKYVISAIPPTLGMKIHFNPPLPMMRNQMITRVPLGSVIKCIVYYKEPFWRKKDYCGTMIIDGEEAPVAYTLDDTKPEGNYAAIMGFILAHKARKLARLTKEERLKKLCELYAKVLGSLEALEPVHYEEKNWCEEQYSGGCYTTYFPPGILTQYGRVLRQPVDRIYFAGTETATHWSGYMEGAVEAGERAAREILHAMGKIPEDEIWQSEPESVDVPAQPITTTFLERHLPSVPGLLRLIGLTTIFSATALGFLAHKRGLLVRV
The experiment can be described thus: MAO-B enzymatic assay (fluorometric, kynuramine). The note with it: human recombinant MAO-B expressed in insect cells; kynuramine substrate; values given as bins; read-out: MAO-B (pEC50) (converted). It is filed as biochemical. How it is done:
The MAO enzymatic assay was performed according to the fluorometric method described by Matsumoto and colleagues (Matsumoto et al., Clin. Biochem. 1985, 18, 126-129) with the following modifications. Human recombinant MAO-A and MAO-B expressed in insect cells were used. For both assays, test compound and/or vehicle were preincubated with purified enzyme in phosphate buffer pH 7.4 for 15 minutes at 37° C. The reaction was initiated by addition of […] kynuramine. Following a 60 minute incubation period, the reaction was terminated by the addition of 6 N NaOH. The amount of 4-hydroxyquinoline that formed was determined by spectrofluorimetrically at 325 nm/465 nm.
Results were converted to percent inhibition, and the EC50 (M) for each reaction was determined using the XLfit program from IDBS (ID Business Solutions Ltd., 2 Occam Court, Surrey Research Park, Guildford, Surrey, GU2 7QB UK). The EC50 represents the concentration of a compound where 50% of its maximal effect is observed. The pEC50 is defined as the negative logarithm of the EC50; a higher pEC50 value therefore corresponds to higher potency in the assay.
Representative compounds of the invention were evaluated in the MAO-B enzymatic assay. Typically, the compounds of the invention show MAO-B inhibitory properties at a concentration of 0.1 to 10 μM, typically at 5-100%.
As depicted in the following Table, these inhibitory properties were mirrored by pEC50 values ranging from 5 (meaning 10^−5 M or 10 μM) to greater than 7 (meaning less than 10^−7 M or 0.1 μM).
Regarding `NC(=O)Cc1cnc2cc(OCc3ccc(F)c(F)c3)cnc2c1` [Example 80, 2-(7-((3,4-Difluorobenzyl)oxy)-1,5-naphthyridin-3-yl)acetamide], the EC50 was less than 100 nM.
Then `OCc1cnc2cc(OCc3ccc(F)c(F)c3)cnc2c1` [Example 73, (7-((3,4-Difluorobenzyl)oxy)-1,5-naphthyridin-3-yl)methanol], with less than 100 nM; and `COC(=O)Cc1cnc2cc(OCc3cccc(Cl)c3)ccc2c1` [Example 54, Methyl 2-(7-((3-chlorobenzyl)oxy)quinolin-3-yl)acetate], with less than 100 nM; and `N#CCc1cnc2cc(OCc3ccc(F)c(F)c3)cnc2c1` [Example 74, 2-{7-[(3,4-Difluorophenyl)methoxy]-1,5-naphthyridin-3-yl}acetonitrile], with less than 100 nM.
Consider `CCOC(=O)c1cnc2cc(OCc3ccc(F)cc3)ccc2c1` [Example 2, Ethyl 7-[(4-fluorophenyl)methoxy]quinoline-3-carboxylate], for which the EC50 is less than 100 nM.
Regarding `CC(C)(O)c1cnc2cc(OCc3ccc(F)cc3)cnc2c1` [Example 65, 2-{7-[(4-Fluorophenyl)methoxy]-1,5-naphthyridin-3-yl}propan-2-ol], the EC50 was less than 100 nM.
Turning to `CCOC(=O)c1cnc2cc(OCc3cc(F)cc(C(F)(F)F)c3)ccc2c1` [Example 13, Ethyl 7-((3-fluoro-5-(trifluoromethyl)benzyl)oxy)quinoline-3-carboxylate], the EC50 is less than 100 nM.
The result for `CCOC(=O)Cc1cnc2cc(OCc3cccc(F)c3)ccc2c1` [Example 52, Ethyl 2-(7-((3-fluorobenzyl)oxy)quinolin-3-yl)acetate] reads 1000 to 10000 nM.
Take `Cc1nc2cc(OCc3cccc(Cl)c3)ccc2cc1C(C)(C)O` [Example 32, 2-(7-((3-Chlorobenzyl)oxy)-2-methylquinolin-3-yl)propan-2-ol]: the EC50 was less than 100 nM.
Consider `CCOC(=O)Cc1cnc2cc(OCc3ccc(F)cc3)ccc2c1` [Example 53, Ethyl 2-(7-((4-fluorobenzyl)oxy)quinolin-3-yl)acetate], for which the EC50 was 100 to 1000 nM.
On to `Cc1nc2cc(OCc3cccc(F)c3)ccc2cc1C(C)(C)O` [Example 34, 2-(7-((3-Fluorobenzyl)oxy)-2-methylquinolin-3-yl)propan-2-ol], for which the EC50 is less than 100 nM.
For `CCOC(=O)c1cnc2cc(OCc3cccc(OC)c3)ccc2c1` [Example 9, Ethyl 7-((3-methoxybenzyl)oxy)quinoline-3-carboxylate], the EC50 is less than 100 nM.
Regarding `CNCCNC(=O)c1cnc2cc(OCc3cccc(Cl)c3)ccc2c1` [Example 48, 7-((3-Chlorobenzyl)oxy)-N-(2-(methylamino)ethyl)quinoline-3-carboxamide], the EC50 is 100 to 1000 nM.
Then `CC(=O)c1cnc2cc(OCc3ccc(F)cc3)ccc2c1` [Example 42, 1-(7-((4-Fluorobenzyl)oxy)quinolin-3-yl)ethanone], with less than 100 nM; and `CC(C)(O)c1cc2ccc(OCc3ccc(F)cc3)cc2[n+]([O-])c1` [Example 66, 7-[(4-Fluorophenyl)methoxy]-3-(2-hydroxypropan-2-yl)quinolin-1-ium-1-olate], with 100 to 1000 nM.
The result for `CC(C)(O)c1cnc2cc(OCCc3cccc(F)c3)ccc2c1` [Example 38, 2-(7-(3-Fluorophenethoxy)quinolin-3-yl)propan-2-ol] reads 100 to 1000 nM; that for `CNC(=O)c1cnc2cc(OCc3cccc(Cl)c3)cnc2c1` [Example 72, 7-[(3-Chlorophenyl)methoxy]-N-methyl-1,5-naphthyridine-3-carboxamide], less than 100 nM; that for `COCc1cnc2cc(OCc3cccc(Cl)c3)ccc2c1` [Example 40, 7-((3-Chlorobenzyl)oxy)-3-(methoxymethyl)quinoline], less than 100 nM.
As for `CC(C)(O)c1cnc2cc(OCc3cccc(Cl)c3)ccc2c1` [Example 28, 2-(7-((3-Chlorobenzyl)oxy)quinolin-3-yl)propan-2-ol], the EC50 is less than 100 nM.
As to `Cc1nc2cc(OCc3ccc(F)cc3)ccc2cc1C(C)(C)O` [Example 31, 2-(7-((4-Fluorobenzyl)oxy)-2-methylquinolin-3-yl)propan-2-ol], the EC50 is less than 100 nM.
Consider `CCOC(=O)c1cc2ccc(OCc3cccc(F)c3)cc2nc1C` [Example 21, Ethyl 7-((3-fluorobenzyl)oxy)-2-methylquinoline-3-carboxylate], for which the EC50 was less than 100 nM.
On to `Cc1nc2cc(OCc3ccc(F)c(Cl)c3)ccc2cc1C(C)(C)O` [Example 33, 2-(7-((3-Chloro-4-fluorobenzyl)oxy)-2-methylquinolin-3-yl)propan-2-ol], for which the EC50 was less than 100 nM.
The result for `CNC(=O)c1cnc2cc(OCc3cccc(Cl)c3)ccc2c1` [Example 46, 7-((3-Chlorobenzyl)oxy)-N-methylquinoline-3-carboxamide] reads less than 100 nM; that for `CC(C)(CO)c1cnc2cc(OCc3cccc(Cl)c3)ccc2c1` [Example 60, 2-(7-((3-Chlorobenzyl)oxy)quinolin-3-yl)-2-methylpropan-1-ol], less than 100 nM; that for `NC(=O)Cc1cnc2cc(OCc3ccnc(C(F)(F)F)c3)ccc2c1` [Example 62, 2-(7-((2-(Trifluoromethyl)pyridin-4-yl)methoxy)quinolin-3-yl)acetamide], less than 100 nM.
The result for `CCOC(=O)c1cnc2cc(OCc3cc(F)cc(Cl)c3)ccc2c1` [Example 19, Ethyl 7-((3-chloro-5-fluorobenzyl)oxy)quinoline-3-carboxylate] reads less than 100 nM.
`CCOC(=O)c1cnc2cc(OCCc3cccc(Cl)c3)ccc2c1` [Example 25, Ethyl 7-(3-chlorophenethoxy)quinoline-3-carboxylate]: the EC50 is 100 to 1000 nM.
As to `NCc1cnc2cc(OCc3cccc(Cl)c3)ccc2c1` [Example 50, (7-((3-Chlorobenzyl)oxy)quinolin-3-yl)methanamine], the EC50 was less than 100 nM.
As for `CC(C)(O)c1cnc2cc(OCc3ccc(F)cc3)ccc2c1` [Example 27, 2-(7-((4-Fluorobenzyl)oxy)quinolin-3-yl)propan-2-ol], the EC50 is less than 100 nM.
As to `CC(C)(C(N)=O)c1cnc2cc(OCc3cccc(Cl)c3)ccc2c1` [Example 61, 2-(7-((3-Chlorobenzyl)oxy)quinolin-3-yl)-2-methylpropanamide], the EC50 was less than 100 nM.
`CCOC(=O)c1cnc2cc(OCc3ccc(F)c(F)c3)ccc2c1` [Example 14, Ethyl 7-((3,4-difluorobenzyl)oxy)quinoline-3-carboxylate]: the EC50 was less than 100 nM.
On to `OCc1cnc2cc(OCc3cc(F)c(F)c(F)c3)ccc2c1` [Example 37, (7-((3,4,5-Trifluorobenzyl)oxy)quinolin-3-yl)methanol], for which the EC50 is less than 100 nM.
In the case of `OCc1cnc2cc(OCc3cccc(Cl)c3)ccc2c1` [Example 35, (7-((3-Chlorobenzyl)oxy)quinolin-3-yl)methanol], the EC50 was less than 100 nM.
In the case of `NC(=O)c1cnc2cc(OCc3cccc(Cl)c3)ccc2c1` [Example 64, 7-((3-Chlorobenzyl)oxy)quinoline-3-carboxamide], the EC50 is less than 100 nM.
For the compound `CCOC(=O)c1cnc2cc(OCc3ccc(C)cc3)ccc2c1` [Example 8, Ethyl 7-((4-methylbenzyl)oxy)quinoline-3-carboxylate], the EC50 was 100 to 1000 nM.
In the case of `CC(O)c1cnc2cc(OCc3ccc(F)cc3)ccc2c1` (centres unmarked) [Example 43, 1-(7-((4-Fluorobenzyl)oxy)quinolin-3-yl)ethanol], the EC50 was less than 100 nM.
Then `CCOC(=O)c1cnc2cc(OCc3cc(F)c(F)c(F)c3)ccc2c1` [Example 16, Ethyl 7-((3,4,5-trifluorobenzyl)oxy)quinoline-3-carboxylate], with less than 100 nM; and `NC(=O)c1cnc2cc(OCc3ccc(F)cc3)cnc2c1` [Example 68, 7-((4-Fluorobenzyl)oxy)-1,5-naphthyridine-3-carboxamide], with less than 100 nM.
With `NCCNC(=O)c1cnc2cc(OCc3cccc(Cl)c3)ccc2c1` [Example 47, N-(2-Aminoethyl)-7-((3-chlorobenzyl)oxy)quinoline-3-carboxamide], the EC50 is less than 100 nM.
On to `CCOC(=O)c1cnc2cc(OCc3ccc(Cl)cc3)ccc2c1` [Example 1, Ethyl 7-[(4-chlorophenyl)methoxy]quinoline-3-carboxylate], for which the EC50 is less than 100 nM.
The result for `OCc1cnc2cc(OCc3cc(F)cc(F)c3)ccc2c1` [Example 36, (7-((3,5-Difluorobenzyl)oxy)quinolin-3-yl)methanol] reads less than 100 nM.
